Legend:
O-acyltransferase [1] = molecular target: T1, O-acyltransferase (Oryctolagus cuniculus, UniProt G1SFD9); assay: Inhibition against acyl coenzyme A:cholesterol acyltransferase derived from rabbit intestine microsomes
[2] = molecular target: T2, Acyl-CoA:cholesterol acyltransferase (Oryctolagus cuniculus, UniProt Q95214); assay: Tested for inhibition against Acyl coenzyme A:cholesterol acyltransferase derived from rabbit aorta homogenate (>, denotes no effect at the concentration indicated)
T2 sequence (Q95214 whole entry): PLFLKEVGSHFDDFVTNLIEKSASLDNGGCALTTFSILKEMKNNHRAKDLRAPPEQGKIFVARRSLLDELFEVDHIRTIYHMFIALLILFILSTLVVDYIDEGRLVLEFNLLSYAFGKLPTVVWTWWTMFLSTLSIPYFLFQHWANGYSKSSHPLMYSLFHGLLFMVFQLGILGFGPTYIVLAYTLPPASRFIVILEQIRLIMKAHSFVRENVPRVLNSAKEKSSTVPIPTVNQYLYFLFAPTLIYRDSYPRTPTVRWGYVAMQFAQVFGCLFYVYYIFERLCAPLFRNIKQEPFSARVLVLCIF

Rattus norvegicus [3] = assay: Cholesterol lowering activity in rats after a dose of 4 mg/kg once a day for 2 days; format: functional
[4] = molecular target: T2, Acyl-CoA:cholesterol acyltransferase; assay: Inhibition against acyl coenzyme A:cholesterol acyltransferase derived from rabbit aorta homogenate; format: tissue-based
Rattus norvegicus [5] = assay: Cholesterol lowering activity in rats after a dose of 1 mg/kg once a day for 2 days; format: functional
Rattus norvegicus [6] = species on record: Rattus norvegicus; assay: Tested for hypocholesterolemic activity required to decrease serum total cholesterol; format: functional
Rattus norvegicus [7] = assay: Tested for cholesterol lowering activity in rats after a dose of 4 mg/kg once a day for 2 days (at a dose of 1 mg/kg once a day for 2 days); format: functional
O-acyltransferase [8] = molecular target: T1, O-acyltransferase; assay: Tested for inhibition against Acyl coenzyme A:cholesterol acyltransferase derived from rabbit intestine microsomes (>, denotes no effect at the concentration indicated)

T1 sequence (G1SFD9 1-524): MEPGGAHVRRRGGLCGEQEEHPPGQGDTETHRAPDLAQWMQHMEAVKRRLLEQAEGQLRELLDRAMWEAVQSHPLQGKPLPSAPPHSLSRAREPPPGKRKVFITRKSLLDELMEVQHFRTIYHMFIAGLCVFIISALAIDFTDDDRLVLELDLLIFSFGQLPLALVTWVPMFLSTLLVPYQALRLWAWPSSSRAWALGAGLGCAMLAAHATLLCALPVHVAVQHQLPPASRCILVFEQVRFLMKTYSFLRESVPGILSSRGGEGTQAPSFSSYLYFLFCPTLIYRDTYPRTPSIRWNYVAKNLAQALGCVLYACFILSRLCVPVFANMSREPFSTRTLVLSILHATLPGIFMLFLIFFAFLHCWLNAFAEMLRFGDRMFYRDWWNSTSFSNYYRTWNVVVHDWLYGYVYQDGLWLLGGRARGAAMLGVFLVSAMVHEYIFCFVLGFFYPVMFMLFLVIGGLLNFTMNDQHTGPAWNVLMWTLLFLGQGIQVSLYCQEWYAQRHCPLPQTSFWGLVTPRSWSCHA

| IC50 (O-acyltransferase [1]) [nM] | IC50 [2] [nM] | IC50 [4] [nM] | IC50 (O-acyltransferase [8]) [nM] | Structure (SMILES) | Cholesterol reduction (Rattus norvegicus [3]) [%] | Cholesterol reduction (Rattus norvegicus [5]) [%] | ED30 (Rattus norvegicus [6]) [mg/kg] | Cholesterol reduction (Rattus norvegicus [7]) [%] |
| --- | --- | --- | --- | --- | --- | --- | --- | --- |
| 160 |  | 63 |  | CCCCCNC(=O)Nc1c(C)cccc1OCCCn1cnc(-c2ccccc2)c1CCC | -56 | -49 |  |  |
| 170 |  | 79 |  | CCCCCNC(=O)Nc1c(C)cccc1OCCCn1cnc(-c2ccccc2)c1CC | -49 | -28 |  |  |
| 540 |  | 120 |  | CCCCCNC(=O)Nc1c(C)cccc1OCCCn1cnc(-c2ccccc2)c1CSC | -33 | -20 |  |  |
| 480 |  | 290 |  | CCCCCNC(=O)Nc1c(C)cccc1OCCCn1cnc(-c2ccccc2)c1COC | -47 | 18 |  |  |
|  |  | 160 |  | CCCCNC(=O)Nc1c(C)cccc1OCCCn1cnc(-c2ccccc2)c1CC |  | -46 | 0.5 |  |

Further lines, the compound ahead of its results:

| Structure (SMILES) | IC50 (O-acyltransferase [1]) [nM] | IC50 [2] [nM] | IC50 [4] [nM] | IC50 (O-acyltransferase [8]) [nM] | Cholesterol reduction (Rattus norvegicus [3]) [%] | Cholesterol reduction (Rattus norvegicus [5]) [%] | ED30 (Rattus norvegicus [6]) [mg/kg] | Cholesterol reduction (Rattus norvegicus [7]) [%] |
| --- | --- | --- | --- | --- | --- | --- | --- | --- |
| CCOCCNC(=O)Nc1c(C)cccc1OCCCn1cnc(-c2ccccc2)c1C | 340 | > 1000 |  |  |  |  |  |  |
| CCCCCNC(=O)Nc1c(OCCCn2cnc(-c3ccccc3)c2C)cccc1N(C)C |  |  |  |  | -42 |  | 1.9 |  |
| CCCCCNC(=O)Nc1c(C)cccc1OCCCn1cnc(-c2ccccc2)c1C | 50 |  | 120 |  |  | -38 |  | -51 |
| Cc1cccc(OCCCn2cnc(-c3ccccc3)c2C)c1NC(=O)NCCC(C)C | 140 |  | 100 |  | -63 | -59 |  |  |
| CCCCCNC(=O)Nc1c(C)cccc1OCCCn1cnc(-c2ccccc2)c1C(C)C | 180 |  | 31 |  | -49 | -30 |  |  |
| COCCCNC(=O)Nc1c(C)cccc1OCCCn1cnc(-c2ccccc2)c1C | 300 | > 1000 |  |  |  |  |  |  |
| CCCCCNC(=O)Nc1c(CO)cccc1OCCCn1cnc(-c2ccccc2)c1C |  |  | 3300 | > 1000 |  |  |  |  |
| CCCCNC(=O)Nc1c(C)cccc1OCCCn1cnc(-c2ccccc2)c1C(C)C | 130 |  | 12 |  |  | -52 | 0.4 |  |
| CCCCCNC(=O)Nc1c(C)cccc1OCCCn1cnc(-c2ccccc2)c1 | 250 |  | 310 |  | -52 | -28 |  |  |
| CCCCCCCN(Cc1ccc(CC(C)(C)C)cc1)C(=O)Nc1ccc(F)cc1F [CL-277082] |  |  |  |  |  |  | 1.5 |  |
